# Legend:
# [1] = target: T1, Human recombinant integrin αvβ1 (Homo sapiens, UniProt P05556+P06756); experiment: Solid phase receptor assay, αvβ1 (fibronectin); assay type: binding
# T1 construct: purchased R&D Systems
# Procedure: The assay was performed according to the method described in International Patent Publication WO 2014/015054 A1 “Beta Amino Acid Derivatives As Integrin Antagonists.” Briefly, 96-well plates were coated overnight with purified fibronectin or vitronectin (R&D Systems) in TBS+ buffer (25 mM Tris 7.4, 137 mM NaCl, 2.7 mM KCl, 1 mM CaCl2, 1 mM MgCl2, 1 mM MnCl2). Compound A was added at different concentrations to recombinant human integrin proteins (R&D Systems) reconstituted in TBS+/0.1% bovine serum albumin, and 50 μL of this mixture were added to the empty wells of the coated plate and incubated for 1-2 hours. After 3 washes, 50 μL of biotinylated antibody (R&D Systems) in TBS+/0.1% bovine serum albumin were added. The procedure continued with three more washes, addition of 50 μL of streptavidin-conjugated horseradish peroxidase (R&D Systems), and incubation for 20 minutes. After 3 more washes, 50 μL of tetramethylbenzidine (TMB) substrate (SIGMA) were added and plates were read after 20 min by colorimetric detection at 650 nm wavelength in an EnVision Multilabel Plate Reader (Perkin Elmer). The concentrations of fibronectin used were: 2 μg/mL for the α5β1 assay and 5 μg/mL for the αvβ1 assay. The concentrations of vitronectin used were: 1 μg/mL for the αvβ3 assay and 0.25 μg/mL for the αvβ5 assay. […]
# [2] = target: T1, Human recombinant integrin αvβ1; experiment: Thermal shift assay (differential scanning fluorimetry), αvβ1; assay type: binding; settings: αvβ1, 20 μM Compound A
# Procedure: Differential scanning fluorimetry was performed on a LightCycler 480 II, real-time PCR instrument (Roche Diagnostics). Human recombinant integrins from R&D Systems (αvβ1, αvβ3 and α5β1) were reconstituted at a concentration of […] in assay buffer (20 mM HEPES, pH=7.3, 100 mM NaCl, 1 mM MgCl2, 1 mM MnCl2) and diluted in assay buffer with Sypro orange (SIGMA) to a final concentration of 400 nM integrin and 5× Sypro orange. A volume of 4.9 μL of this mixture of protein and dye was transferred to a 384-well plate and 100 nL of DMSO or Compound A, dissolved in DMSO, were added using an Echo 555 instrument (Labcyte). The final concentration of Compound A in the assay was 20 μM. After mixing, the assay plate was sealed, spun at 1,000×g for two minutes, and subsequently heated from 25 to 99° C. over the course of 31 min in the LightCycler 480 II instrument. Fluorescence intensity was measured using excitation/emission wavelengths of 465 and 580 nm, respectively. Changes in protein thermal stability (ΔTm) upon compound binding were analyzed by using LightCycler 480 (software provided by the manufacturer).
# [3] = tested on: male obese ZSF1 rats (diabetic nephropathy model); experiment: ZSF1 rat study: kidney collagen I and III immunostaining; assay type: in vivo
# Procedure: (§1) The effects of Compound A (“A”) on renal function, plasma triglycerides, plasma cholesterol, kidney collagen I, kidney collagen III, renal histology, glomerular filtration rate, fibrosis score, and mRNA gene expression (profibrotic genes and integrin β3) were evaluated in male obese ZSF1 rats (a hybrid F1 of Zucker diabetic fatty rat and spontaneously hypertensive heart failure rat; a diabetic nephropathy model) when administered as in-feed for 28 weeks. Sixty obese male ZSF1 rats were randomized to five groups: Obese control (n=12), Compound A 60 mpk (n=12), Compound A 200 mpk (n=12), Compound A 400 mpk (n=12), Enalapril 10 mpk (n=12); Eight lean male ZSF1 rats were used for normal control. Renal functional changes were monitored by blood and urine analysis following in-feed dosing for 28 weeks. Compound exposure was also monitored during the study.
# Following deparaffinization and rehydration, each kidney tissue section was processed to identify collagen I and III deposition. The primary antibodies used were rabbit anti-type I collagen polyclonal antibody (Abcam, Cambridge, Mass.) diluted at 2 ug/ml, and rabbit anti-type III collagen polyclonal antibody (Lifespan, Seattle, Wash.) at 3 ug/ml. The signal was developed by using Super PicTure HRP Polymer Rabbit Primary kit (Invitrogen) and the slides were counterstained with hematoxylin. The Aperio ScanScope XT Slide Scanner (Aperio Technologies, Vista, Calif.) system was used to capture whole slide digital images with a 20× objective. Digital images were managed using Aperio Spectrum. The positive stains were identified and quantified using a macro created from a color deconvolution algorithm (Aperio Technologies, Vista, Calif.).
# [4] = tested on: male obese ZSF1 rats (diabetic nephropathy model); experiment: ZSF1 rat study: renal fibrosis score (histology); assay type: in vivo; settings: for renal fibrosis score (expressed as 0-5): obese ZSF1 rats, week 28
# Procedure: as §1
# Upon completion of the study, animals were euthanized and blood and organs (kidney, heart, aorta, eyes, and lumber vertebrae (LV1-LV5) and left femur) were collected for histology assessment (including EM for the kidneys) or DEXA scan (lumber vertebrae and left femur). Kidney tissues were fixed in 10% formalin and then paraffin embedded. Tissue sections were stained with hematoxylin and eosin (H&E), periodic acid-Schiff (PAS), and Masson's trichrome and evaluated under light microscope. The severity of histopathologic changes in renal tubules, interstitium, vasculature, and glomeruli were graded on a 1 to 5 scale corresponding to minimal, mild, moderate, marked, and severe as described previously. Sections from both kidneys were examined. Collagen deposition in the kidney was graded on a 1 to 5 scale corresponding to minimal, mild, moderate, marked, and severe, based on the blue stained area size and intensity.
# [5] = tested on: male obese ZSF1 rats (diabetic nephropathy model); experiment: ZSF1 rat study: kidney mRNA expression of profibrotic genes and integrin beta3; assay type: in vivo; settings: for Collagen I (a1) expression in the kidney / Collagen III (a1) expression in the kidney / Integrin beta3 expression in the kidney / PAI-1 expression in the kidney: obese ZSF1 rats, week 28
# Procedure: as §1
# [6] = obese ZSF1 rats, 400 mpk in-feed, week 28
# T1 sequence (P06756 31-992 limits assumed): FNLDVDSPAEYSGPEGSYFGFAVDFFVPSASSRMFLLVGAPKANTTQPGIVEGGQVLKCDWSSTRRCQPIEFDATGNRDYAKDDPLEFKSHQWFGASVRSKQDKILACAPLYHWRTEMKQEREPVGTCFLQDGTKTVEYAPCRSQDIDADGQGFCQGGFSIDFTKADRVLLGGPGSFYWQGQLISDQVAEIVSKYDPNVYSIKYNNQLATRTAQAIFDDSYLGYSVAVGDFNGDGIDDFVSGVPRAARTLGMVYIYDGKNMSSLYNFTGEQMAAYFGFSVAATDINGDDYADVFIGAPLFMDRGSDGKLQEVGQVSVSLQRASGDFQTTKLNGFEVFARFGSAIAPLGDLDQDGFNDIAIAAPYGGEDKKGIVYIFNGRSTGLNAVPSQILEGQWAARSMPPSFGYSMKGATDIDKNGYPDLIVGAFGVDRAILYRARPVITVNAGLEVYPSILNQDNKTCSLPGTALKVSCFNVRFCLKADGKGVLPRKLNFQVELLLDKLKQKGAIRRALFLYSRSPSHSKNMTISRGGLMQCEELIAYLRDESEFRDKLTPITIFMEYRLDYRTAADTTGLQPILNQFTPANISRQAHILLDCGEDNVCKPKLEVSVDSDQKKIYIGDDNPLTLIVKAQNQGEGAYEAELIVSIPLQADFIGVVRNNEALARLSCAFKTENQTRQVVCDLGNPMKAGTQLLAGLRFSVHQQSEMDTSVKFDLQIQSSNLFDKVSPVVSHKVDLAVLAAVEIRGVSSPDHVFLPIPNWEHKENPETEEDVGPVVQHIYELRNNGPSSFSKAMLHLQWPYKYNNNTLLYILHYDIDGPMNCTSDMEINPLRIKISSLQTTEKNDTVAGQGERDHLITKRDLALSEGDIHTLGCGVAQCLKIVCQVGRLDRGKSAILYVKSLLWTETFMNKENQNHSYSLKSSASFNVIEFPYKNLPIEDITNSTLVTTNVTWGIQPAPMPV
# T1 sequence (P05556 21-728 limits assumed): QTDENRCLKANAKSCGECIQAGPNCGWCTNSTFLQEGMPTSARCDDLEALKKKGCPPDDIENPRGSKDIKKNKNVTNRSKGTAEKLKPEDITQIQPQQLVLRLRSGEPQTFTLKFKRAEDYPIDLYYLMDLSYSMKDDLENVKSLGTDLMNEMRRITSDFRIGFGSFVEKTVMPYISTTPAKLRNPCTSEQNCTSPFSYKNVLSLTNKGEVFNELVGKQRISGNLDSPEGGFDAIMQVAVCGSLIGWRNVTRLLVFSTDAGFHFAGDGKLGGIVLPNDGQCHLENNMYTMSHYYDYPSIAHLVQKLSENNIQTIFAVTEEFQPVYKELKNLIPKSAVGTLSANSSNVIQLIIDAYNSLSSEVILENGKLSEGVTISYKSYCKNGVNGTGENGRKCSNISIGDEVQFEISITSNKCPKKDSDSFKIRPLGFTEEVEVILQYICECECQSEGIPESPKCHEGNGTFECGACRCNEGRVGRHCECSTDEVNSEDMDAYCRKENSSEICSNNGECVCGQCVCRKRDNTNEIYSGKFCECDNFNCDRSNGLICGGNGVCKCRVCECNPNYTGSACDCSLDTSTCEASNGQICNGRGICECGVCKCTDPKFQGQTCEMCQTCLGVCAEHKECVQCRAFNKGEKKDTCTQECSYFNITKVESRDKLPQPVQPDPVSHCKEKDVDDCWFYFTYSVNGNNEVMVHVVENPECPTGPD
smiles,measurement,setting,value
"COc1ccc([C@H](CC(=O)O)N2CCN(CCCc3ccc4c(n3)NCCC4)C2=O)cn1 [Compound A, 3-{2-Oxo-3-[3-(5,6,7,8-tetrahydro-[1,8]naphthyridin-2-yl)-propyl]imidazolidin-1-yl}-3 (S)-(6-methoxy-pyridin-3-yl)-propionic acid]",IC50,"[1]; αvβ1, first of two experiments",2.1 nM
same,IC50,"[1]; αvβ1, second of two experiments",0.9 nM
same,ΔTm at 20 µM,[2]; first of two experiments,19.4 °C
same,ΔTm at 20 µM,[2]; second of two experiments,15.6 °C
same,effect on kidney collagen I protein levels vs Obese Vehicle,[3]; 400 mpk at week 28,significantly decreased
same,effect on kidney collagen III protein levels vs Obese Vehicle,[3]; 400 mpk at week 28,significantly decreased
same,kidney collagen I protein levels,"[3]; obese ZSF1 rats, 200 mpk in-feed, week 28",39.79 ± 0.82 % of area
same,kidney collagen I protein levels,[3]; [6],36.45 ± 0.85 % of area
same,kidney collagen III protein levels,[3]; [6],19.23 ± 0.76 % of area
same,effect on renal fibrosis score vs Obese Vehicle,[4]; 400 mpk at week 28,significantly decreased
same,markers of renal fibrosis,[4]; ZSF-1 rats vs untreated obese ZSF-1 rats (summary),improvement in markers of renal fibrosis
same,renal fibrosis score (expressed as 0-5),[4]; 200 mpk in-feed,2.7 ± 0.1
same,renal fibrosis score (expressed as 0-5),[4]; 400 mpk in-feed,2.2 ± 0.1
same,effect on expression of key profibrotic genes and integrin beta3 in the kidney vs obese vehicle,[5]; 200 mpk or 400 mpk at week 28,significantly decreased
same,Collagen I (a1) expression in the kidney,[5]; 200 mpk in-feed,0.79 ± 0.04
same,Collagen III (a1) expression in the kidney,[5]; 200 mpk in-feed,0.60 ± 0.03
same,Integrin beta3 expression in the kidney,[5]; 200 mpk in-feed,0.83 ± 0.03
same,PAI-1 expression in the kidney,[5]; 200 mpk in-feed,0.80 ± 0.03
same,Collagen I (a1) expression in the kidney,[5]; 400 mpk in-feed,0.66 ± 0.02
same,Collagen III (a1) expression in the kidney,[5]; 400 mpk in-feed,0.52 ± 0.01
same,Integrin beta3 expression in the kidney,[5]; 400 mpk in-feed,0.74 ± 0.03
same,PAI-1 expression in the kidney,[5]; 400 mpk in-feed,0.66 ± 0.03

# Reference: patent US20180110762A1, “Compositions Methods for Treating Chronic Kidney Disease” (Merck Sharp & Dohme Corp, priority 2015, published 2018)
